According to US20260365682A1, “MODULATORS OF TNF-ALPHA ACTIVITY” (Forward Therapeutics, Inc., priority 2022, published 2026):

What follows are compounds tested against T1, TNF-α (Homo sapiens, UniProt P01375) (assay: TNF-α Induced HEK Blue Cellular Assay (secreted alkaline phosphatase expression, QUANTI-Blue)). Details: HEK Blue TNFα reporter cells; TNF-α 100 μg/ml; 24 hrs at 37° C.; inhibition of secreted alkaline phosphatase; read-out: IC50 value.
T1 construct: purchased R&D 210-TA-020/CF
T1 sequence (P01375 77-233 limits assumed): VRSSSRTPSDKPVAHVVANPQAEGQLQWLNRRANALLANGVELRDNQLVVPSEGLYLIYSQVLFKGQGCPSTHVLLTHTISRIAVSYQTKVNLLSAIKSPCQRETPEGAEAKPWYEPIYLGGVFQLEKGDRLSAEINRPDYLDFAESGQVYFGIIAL
Assay type: cell-based
In short: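 Compound was serially diluted from […] to 0.5 nM final, then incubated with 10,000 HEK Blue TNFα reporter cells per well and […] TNF-α for 24 h at 37° C. SEAP output was read by QUANTI-Blue absorbance at 620 nm. Inhibition was background-corrected against DMSO controls with and without stimulation, and IC50 was fitted with a 4-parameter logistic equation.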
[2H]C([2H])([2H])N1C(=O)c2cccc(OC(F)F)c2[C@H]2C[C@@H]1c1nc3ccc(C#CC[Si](C)(C)C)cc3n12 [Example 90, (7R,14R)-1-(difluoromethoxy)-6-(methyl-d3)-11-(3-(trimethylsilyl)prop-1-yn-1-yl)-6,7-dihydro-7,14-methanobenzo[f]benzo[4,5]imidazo[1,2-a][1,4]diazocin-5(14H)-one] was tested, and the IC50 was < 0.1 µM. In the case of [2H]C([2H])([2H])N1C(=O)c2cccc(OC(F)F)c2[C@H]2C[C@@H]1c1nc3ccc(C#CC4CN(C(=O)C5CC5)C4)cc3n12 [Example 127, (7R,14R)-11-((1-(cyclopropanecarbonyl)azetidin-3-yl)ethynyl)-1-(difluoromethoxy)-6-(methyl-d3)-6,7-dihydro-7,14-methanobenzo[f]benzo[4,5]imidazo[1,2-a][1,4]diazocin-5(14H)-one], the IC50 is reported as < 0.1 µM. For [2H]C([2H])([2H])N1C(=O)c2cccc(OC(F)F)c2[C@H]2C[C@@H]1c1nc3ccc(C#C[C@@H](C)N)cc3n12 [Example 50, (7R,14R)-11-((R)-3-aminobut-1-yn-1-yl)-1-(difluoromethoxy)-6-(methyl-d3)-6,7-dihydro-7,14-methanobenzo[f]benzo[4,5]imidazo[1,2-a][1,4]diazocin-5(14H)-one], the IC50 was < 0.1 µM. With [2H]C([2H])([2H])N1C(=O)c2cccc(OC(F)F)c2[C@H]2C[C@@H]1c1nc3ccc(C#CCCN4CC[C@@H](F)C4)cc3n12 [Example 227, (7R,14R)-1-(difluoromethoxy)-11-(4-((R)-3-fluoropyrrolidin-1-yl)but-1-yn-1-yl)-6-(methyl-d3)-6,7-dihydro-7,14-methanobenzo[f]benzo[4,5]imidazo[1,2-a][1,4]diazocin-5(14H)-one] the IC50 was < 0.1 µM. An IC50 of 0.1 to 1 µM was found for [2H]C([2H])([2H])N1C(=O)c2cccc(OC(F)F)c2[C@H]2C[C@@H]1c1nc3ccc(C#CCCNC)cc3n12 [Example 151, (7R,14R)-1-(difluoromethoxy)-6-(methyl-d3)-11-(4-(methylamino)but-1-yn-1-yl)-6,7-dihydro-7,14-methanobenzo[f]benzo[4,5]imidazo[1,2-a][1,4]diazocin-5(14H)-one] in this work. In the case of [2H]C([2H])([2H])N1C(=O)c2cccc(OC(F)F)c2[C@H]2C[C@@H]1c1nc3ccc(C#C[C@H](C)CO)cc3n12 [Example 129, (7R,14R)-1-(difluoromethoxy)-11-((S)-4-hydroxy-3-methylbut-1-yn-1-yl)-6-(methyl-d3)-6,7-dihydro-7,14-methanobenzo[f]benzo[4,5]imidazo[1,2-a][1,4]diazocin-5(14H)-one], the IC50 is reported as < 0.1 µM. An IC50 of 1 to 10 µM was found for [2H]C([2H])([2H])N1C(=O)c2cccc(OC(F)F)c2[C@H]2C[C@@H]1c1nc3ccc(C#CCOC4CCN(C(=O)OC(C)(C)C)CC4)cc3n12 [Example 116, tert-butyl 4-((3-((7R,14R)-1-(difluoromethoxy)-6-(methyl-d3)-5-oxo-5,6,7,14-tetrahydro-7,14-methanobenzo[f]benzo[4,5]imidazo[1,2-a][1,4]diazocin-11-yl)prop-2-yn-1-yl)oxy)piperidine-1-carboxylate] in this work. In the case of [2H]C([2H])([2H])N1C(=O)c2cccc(OC(F)F)c2[C@H]2C[C@@H]1c1nc3ccc(C#CC(=O)O)cc3n12 [Example 37, 3-((7R,14R)-1-(difluoromethoxy)-6-(methyl-d3)-5-oxo-5,6,7,14-tetrahydro-7,14-methanobenzo[f]benzo[4,5]imidazo[1,2-a][1,4]diazocin-11-yl)propiolic Acid], the IC50 is reported as < 0.1 µM. CN1C(=O)c2cccc(OC(F)F)c2[C@H]2C[C@@H]1c1nc3ccc(C#Cc4cnn(C)c4)cc3n12 [Example 1, (1R,11R)-18-(difluoromethoxy)-12-methyl-5-[2-(1-methylpyrazol-4-yl)ethynyl]-2,9,12-triazapentacyclo[9.8.1.0^∧{2,10}.0^∧{3,8}. 0^∧{14,19}]icosa-3(8),4,6,9,14(19),15,17-heptaen-13-one] was tested, and the IC50 was < 0.1 µM. With [2H]C([2H])([2H])N1C(=O)c2cccc(OC(F)F)c2[C@H]2C[C@@H]1c1nc3ccc(C#CCCOC(F)F)cc3n12 [Example 103, (7R,14R)-1-(difluoromethoxy)-11-(4-(difluoromethoxy)but-1-yn-1-yl)-6-(methyl-d3)-6,7-dihydro-7,14-methanobenzo[f]benzo[4,5]imidazo[1,2-a][1,4]diazocin-5(14H)-one] the IC50 was < 0.1 µM. For [2H]C([2H])([2H])N1C(=O)c2cccc(OC(F)F)c2[C@H]2C[C@@H]1c1nc3ccc(C#CC4CN(CC)C4)cc3n12 [Example 118, (7R,14R)-1-(difluoromethoxy)-11-((1-ethylazetidin-3-yl)ethynyl)-6-(methyl-d3)-6,7-dihydro-7,14-methanobenzo[f]benzo[4,5]imidazo[1,2-a][1,4]diazocin-5(14H)-one], the IC50 was < 0.1 µM. [2H]C([2H])([2H])N1C(=O)c2cccc(OC(F)F)c2[C@H]2C[C@@H]1c1nc3ccc(C#CC4CCOC4)cc3n12 (stereo partly drawn) [Example 102, (7R,14R)-1-(difluoromethoxy)-6-(methyl-d3)-11-((tetrahydrofuran-3-yl)ethynyl)-6,7-dihydro-7,14-methanobenzo[f]benzo[4,5]imidazo[1,2-a][1,4]diazocin-5(14H)-one] was tested, and the IC50 was < 0.1 µM. For [2H]C([2H])([2H])N1C(=O)c2cccc(OC(F)F)c2[C@H]2C[C@@H]1c1nc3ccc(C#CC4(O)CN(C5COC5)C4)cc3n12 [Example 250, (7R,14R)-1-(difluoromethoxy)-11-((3-hydroxy-1-(oxetan-3-yl)azetidin-3-yl)ethynyl)-6-(methyl-d3)-6,7-dihydro-7,14-methanobenzo[f]benzo[4,5]imidazo[1,2-a][1,4]diazocin-5(14H)-one], the IC50 was < 0.1 µM. An IC50 of 10 to 30 µM was found for [2H]C([2H])([2H])N1C(=O)c2cccc(OC(F)F)c2[C@H]2C[C@@H]1c1nc3ccc(C#CC(C)(C)CO)cc3n12 [Example 191, (7R,14R)-1-(difluoromethoxy)-11-(4-hydroxy-3,3-dimethylbut-1-yn-1-yl)-6-(methyl-d3)-6,7-dihydro-7,14-methanobenzo[f]benzo[4,5]imidazo[1,2-a][1,4]diazocin-5(14H)-one] in this work. An IC50 of 0.1 to 1 µM was found for [2H]C([2H])([2H])N1C(=O)c2cccc(OC(F)F)c2[C@H]2C[C@@H]1c1nc3ccc(C#CCNC(C)C)cc3n12 [Example 66, (7R,14R)-1-(difluoromethoxy)-11-(3-(isopropylamino)prop-1-yn-1-yl)-6-(methyl-d3)-6,7-dihydro-7,14-methanobenzo[f]benzo[4,5]imidazo[1,2-a][1,4]diazocin-5(14H)-one] in this work. An IC50 of 10 to 30 µM was found for [2H]C([2H])([2H])N1C(=O)c2cccc(OC(F)F)c2[C@H]2C[C@@H]1c1nc3ccc(C#CC(N)CC(C)(C)O)cc3n12 (single isomer, unassigned) [Example 217, (7R,14R)-11-((R or S)-3-amino-5-hydroxy-5-methylhex-1-yn-1-yl)-1-(difluoromethoxy)-6-(methyl-d3)-6,7-dihydro-7,14-methanobenzo[f]benzo[4,5]imidazo[1,2-a][1,4]diazocin-5(14H)-one] in this work. An IC50 of 10 to 30 µM was found for [2H]C([2H])([2H])N1C(=O)c2cccc(OC(F)F)c2[C@H]2C[C@@H]1c1nc3ccc(C#CC4(C)CCN(C(=O)C5CC5)CC4)cc3n12 [Example 181, (7R,14R)-11-((1-(cyclopropanecarbonyl)-4-methylpiperidin-4-yl)ethynyl)-1-(difluoromethoxy)-6-(methyl-d3)-6,7-dihydro-7,14-methanobenzo[f]benzo[4,5]imidazo[1,2-a][1,4]diazocin-5(14H)-one] in this work.
